Source: US5609749A, “Electrochemical assay method with novel p-phenylenediamine compound” (Mochida Pharmaceutical Co., Ltd., priority 1993, dated 1997)

Experiments:
[1] = target: T1, Horseradish peroxidase (HRPO) (Armoracia rusticana, UniProt P00433); experiment: Electron transfer activity 2: HRPO-hydrogen peroxide-compound, current at -80 mV or -150 mV; type: biochemical; conditions: -80 mV or -150 mV vs Ag/AgCl, pH 6.0
T1 construct: purchased TOYOBO
T1 sequence (P00433 31-338 limits assumed): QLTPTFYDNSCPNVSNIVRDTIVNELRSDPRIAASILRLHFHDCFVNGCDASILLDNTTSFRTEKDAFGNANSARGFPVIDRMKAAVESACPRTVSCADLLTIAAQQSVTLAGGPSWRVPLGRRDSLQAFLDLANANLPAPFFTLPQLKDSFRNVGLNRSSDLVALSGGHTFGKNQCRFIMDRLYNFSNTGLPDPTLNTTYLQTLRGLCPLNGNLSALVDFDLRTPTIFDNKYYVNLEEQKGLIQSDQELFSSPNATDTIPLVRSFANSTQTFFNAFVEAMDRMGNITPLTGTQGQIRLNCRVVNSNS
Procedure: Measurement of electron transfer activities of TCPD, THEPD, TDHPD, HTEPD, N,N-BHDPD, N,N'-BHPD, N,N'-BHDPD, and p-phenylenediamine derivatives having substituted amino group by reacting p-phenylenediamine with propyleneoxide--2
Horseradish peroxidase (HRPO, manufactured by TOYOBO) was dissolved in 0.1M phosphate buffer (pH 6.0) containing 0.1M NaCl to prepare 0M and 5.0×10^-7 M HRPO solutions. Also, hydrogen peroxide (manufactured by Wako Pure Chemical Industries) was dissolved in the same buffer to prepare a 1.0×10^-1 M solution. In the same manner, each of the TCPD, THEPD, TDHPD, HTEPD, N,N-BHDPD, N,N'-BHPD, N,N'-BHDPD, and p-phenylenediamine derivatives having substituted amino group by reacting p-phenylenediamine with propyleneoxide obtained in Synthesis Examples 1 to 9 was dissolved in the same buffer to prepare a 5.0×10^-3 M solution.
(§1) Each of these solutions was mixed in 0.1M phosphate buffer (pH 6.0) containing 0.1M NaCl in the following mixing ratio just before the measurement to prepare solutions of the following compositions A and B, and electric current was measured continuously in the presence (composition A) or absence (composition B) of HRPO.
Using the same apparatus of Test Example 2, electric current was measured in the presence (composition A) or absence (composition B) of HRPO for 5 or 10 minutes after application of potential of -80 mV (vs Ag/AgCl, the same shall apply hereinafter) in the case of TEPD, THEPD, and TDHPD, or -150 mV in the case of TCPD, HTEPD, N,N-BHDPD, N,N'-BHPD, N,N'-BHDPD, and p-phenylenediamine derivatives having substituted amino group by reacting p-phenylenediamine with propyleneoxide.

[2] = target: T2, Glucose oxidase (GOD) (Aspergillus niger, UniProt P13006); experiment: Electron transfer activity 1: GOD-glucose-compound, current at +300 mV; type: biochemical; conditions: +300 mV vs Ag/AgCl, pH 6.0
T2 construct: purchased Boehringer-Mannheim
Procedure: Measurement of electron transfer activities of TEPD, TCPD, THEPD, TDHPD, HTEPD, N,N'-BHPD, N,N-BHDPD, N,N'-BHDPD, and p-phenylenediamine derivatives having substituted amino group by reacting p-phenylenediamine with propyleneoxide--1
Glucose oxidase (GOD, manufactured by Boehringer-Mannheim) was dissolved in 0.1M phosphate buffer (pH 6.0) containing 0.1M NaCl to prepare 0M and 4.0×10^-4 M GOD solutions. Also, glucose (manufactured by Junsei Kagaku) was dissolved in the same buffer to prepare a 1.5M solution. In the same manner, each of the TEPD, TCPD, THEPD, TDHPD, HTEPD, N,N-BHDPD, N,N'-BHPD, N,N'-BHDPD, and p-phenylenediamine derivatives having substituted amino group by reacting p-phenylenediamine with propyleneoxide obtained in Synthesis Examples 1 to 9 was dissolved in the same buffer to prepare a 5.0×10^-3 M solution.
as §1, with “and” for “and electric”, “GOD.” for “HRPO.”
Using the same apparatus of Test Example 2, electric current was measured in the presence (composition A) or absence (composition B) of GOD for 10 minutes under application of potential of +300 mV (vs Ag/AgCl) to the working electrode.

T2 sequence (P13006 17-605): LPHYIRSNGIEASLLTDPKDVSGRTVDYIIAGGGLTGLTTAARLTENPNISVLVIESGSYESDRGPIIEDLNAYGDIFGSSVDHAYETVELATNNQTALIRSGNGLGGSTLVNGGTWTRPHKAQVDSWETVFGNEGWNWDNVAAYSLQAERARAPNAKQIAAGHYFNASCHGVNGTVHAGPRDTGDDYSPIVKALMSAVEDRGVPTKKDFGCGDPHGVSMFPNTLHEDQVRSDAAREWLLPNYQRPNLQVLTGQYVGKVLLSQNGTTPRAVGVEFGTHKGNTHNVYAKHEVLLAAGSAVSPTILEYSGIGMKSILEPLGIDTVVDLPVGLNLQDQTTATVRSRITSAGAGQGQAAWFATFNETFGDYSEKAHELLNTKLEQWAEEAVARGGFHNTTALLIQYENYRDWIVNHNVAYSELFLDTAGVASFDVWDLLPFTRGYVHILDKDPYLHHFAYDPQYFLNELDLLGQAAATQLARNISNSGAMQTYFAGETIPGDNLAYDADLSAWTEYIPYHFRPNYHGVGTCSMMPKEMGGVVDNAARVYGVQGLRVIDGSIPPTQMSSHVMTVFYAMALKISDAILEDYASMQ

Row | Structure (SMILES) | function as electron mediator between HRPO and the electrode [1] | function as electron mediator between GOD and the electrode [2]
1 | CCN(CC)c1ccc(N(CC)CC)cc1.Cl.Cl [TEPD, N,N,N',N'-tetraethyl-p-phenylenediamine dihydrochloride, reference compound] | function as a reversible electron mediator between HRPO and the electrode | function as a reversible electron mediator between GOD and the electrode
2 | Cl.Cl.OCCN(CCO)c1ccc(N(CCO)CCO)cc1 [THEPD, N,N,N',N'-tetrakis-(2'-hydroxyethyl)-p-phenylenediamine dihydrochloride] | function as a reversible electron mediator between HRPO and the electrode | function as a reversible electron mediator between GOD and the electrode
